Test results reported in patent US9752115B2, “Culture conditions for expansion of nephron progenitor cells” (Maine Medical Center Research Institute, priority 2014, dated 2017).

Key:
CITED1+ progenitors [1] = settings: serum free medium; BIO 2 μM, CHIR99021 3 μM; cited from earlier work
CITED1+ progenitors [2] = test: Aggregate culture tubulogenesis of purified CITED1+ progenitors; assay type: cell-based, mouse
Method: Cell culture. CITED1+ progenitors were purified from NZCs derived from E17.5 kidneys as previously described (Brown et al., 2011b; Brown et al., 2013). CITED1+ progenitors were cultured in monolayer on hESC qualified MatrigelTM coated plates (Corning). For human or mouse passage, cells were dissociated by incubation with TrypLE (Life Technologies) for 2 minutes at 37 C, washed and spun 2× at 300 g in autoMACs running buffer (Miltenyi) prior to resuspension in NPEM as described in Table 1. NPEM is changed every 2 days. Cells were differentiated in aggregate culture with CHIR (3 μM) in medium as previously described (Brown et al., 2013). To understand if these observations could be extrapolated to CITED1+ cells in culture, a series of experiments was performed upon nephron progenitor cells isolated from embryonic mouse kidneys. Using a previously developed isolation protocol, CITED1+ progenitors were harvested from embryonic mouse kidneys between the ages of E16.5 to P1 at near 100% purity, allowing interrogation of the CITED1+ population at multiple time points (FIGS. 7A and 7B) (Brown et al., 2013). However, CITED1 progenitor purity dropped to 75% by P2, likely due to the loss of CITED1+ progenitors that occurred during cessation (FIG. 7B and FIG. 6B).

[3] = test system: E17.5 CITED1+ progenitors; test: Subtraction of individual factors from NPEM, mouse progenitors; assay type: cell-based; settings: for competence for tubulogenesis after subtraction of the factor: 7 days in aggregate culture after monolayer; for progenitor growth and state in the absence of the factor: factor subtracted from NPEM, 3 days monolayer
Method: Flow cytometry. CITED1+ progenitors were purified from GFP+ kidneys isolated from Cited1creERT2-EGFP×ICR mice and cultured as described in the text. GFP fluorescence intensity and cell counts were collected on a FACSCalibur (BD) and data were analyzed using FlowJo software.
Using flow cytometry on E17.5 CITED1+ progenitors derived from Cited1creERT2-EGFP mice, the requirement for each of the culture additives to maintain cells in the undifferentiated state was evaluated by subtracting them from the medium (FIGS. 10A and 10B).
In the absence of LDN, nuclear localization of pSMAD1/5 increased dramatically, as did transcription of the SMAD response gene Cv2 (FIGS. 10C and 10D). […] In addition to losing CITED1 expression, progenitors cultured in the absence of LDN lost expression of characteristic marker genes including […], PAX2, WT1 and […], which may have helped to explain their lack of competence (FIG. 10F and FIG. 14). CITED1+ progenitors isolated from E13.5 kidneys also required LDN to expand while maintaining their competence to differentiate (FIG. 15).

[4] = test system: hESC-derived nephron progenitors; test: Subtraction of individual components from NPEM, hESC-derived progenitors; assay type: cell-based, human; settings: passage 3 progenitors, 3 days monolayer
Method: FIGS. 19A and 19B show nephron progenitor marker expression in human ES cell derived cultures grown in the absence of individual factors. In FIG. 19A, passage 3 progenitors were grown in NPEM in the absence of individual factors for 3 days in monolayer culture and immunostained for CITED1, SIX2, PAX2 and WT1. Antibody staining is shown in red and nuclear counterstaining with DAPI is shown in blue. In FIG. 19B, passage 3 progenitors were grown in NPEM in the absence of the indicated factors for 3 days in monolayer culture and immunostained for PAX2.
To understand if cellular growth in NPEM could be directly extrapolated to human cells, the above analysis was repeated with nephron progenitor cells derived from hESCs using the Takasato protocol (Takasato et al., 2014). CITED1+/SIX2+/PAX2+/WT1+ cells generated using this procedure lost expression of nephron progenitor markers following a single passage (FIG. 12A and FIG. 18A). […] When LDN was eliminated from the medium during the passage 2 culture, cells lost expression of PAX2 (FIG. 12C).

cap mesenchyme = test: Cited1/Six2 EGFP reporter expression in cap mesenchyme of treated pups; assay type: in vivo, mouse; settings: EGFP reporter mice, P2 and P3; untreated animals lost expression
Excerpt: (§1) Fluorescent imaging of GFP expression in cap mesenchymes “C” shown. […] Cap mesenchymes are outlined with dotted red lines. […] Percent remaining after LDN treatment quantified in graph. NZCs were isolated from 4 kidney pairs per treatment group and pooled. […] Representative image from 4 kidney pairs per group shown. […] Data represent the mean±SD of qPCR technical replicates from 5 (DMSO) and 6 (LDN) pooled kidney pairs.
(§2) Mouse strains and treatments. Animal care was in accordance with the National Research Council Guide for the Care and Use of Laboratory Animals and protocols were approved by the Institutional Animal Care and Use Committee of Maine Medical Center. CITED1 progenitors were derived from kidneys of Cited1creERT2-EGFP×ICR (Institute for Cancer Research mice) heterozygous mice. Cited1creERT2-EGFP and Six2cre-EGFP mouse strains are maintained on an FVB/NJ background (Boyle et al., 2008a; Kobayashi et al., 2008).
(§3) LDN was selected over other similar analogs because it is highly specific for SMAD1/5 and has been successfully used in vivo (Yu et al., 2008). […] To measure the differentiation status of nephron progenitor cells, Cited1creERT2-EGFP and Six2cre-EGFP mouse strains were used, which dynamically expressed fluorescent protein under the control of Cited1 and Six2 (Boyle et al., 2008a; Kobayashi et al., 2008). […]

ALK7 = biological target: T1, ALK7 (Homo sapiens, UniProt Q8NER5); settings: ALK7, not inhibited; cited from earlier work
T1 sequence (Q8NER5 21-493): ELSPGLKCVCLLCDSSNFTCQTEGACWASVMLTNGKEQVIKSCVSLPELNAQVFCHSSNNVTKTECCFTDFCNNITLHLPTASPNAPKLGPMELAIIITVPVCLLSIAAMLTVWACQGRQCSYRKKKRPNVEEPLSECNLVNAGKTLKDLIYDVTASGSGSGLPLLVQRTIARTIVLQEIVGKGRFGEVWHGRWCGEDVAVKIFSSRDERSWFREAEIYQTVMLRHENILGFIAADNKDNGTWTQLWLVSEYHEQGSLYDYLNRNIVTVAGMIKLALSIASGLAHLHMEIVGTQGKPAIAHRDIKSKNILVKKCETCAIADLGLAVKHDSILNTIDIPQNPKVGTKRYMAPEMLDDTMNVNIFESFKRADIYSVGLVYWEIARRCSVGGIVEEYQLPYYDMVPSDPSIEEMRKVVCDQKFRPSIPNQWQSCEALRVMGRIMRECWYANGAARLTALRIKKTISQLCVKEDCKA

SMAD1/5 phosphorylation = test: pSMAD1/5 immunoblot of nephrogenic zone cells from LDN-treated newborn pups; assay type: in vivo, mouse; settings: immunoblot of isolated NZCs; 3 mg/kg intraperitoneal twice daily P0 until P2
Excerpt: as §1, §2, §3

| SMILES | tubulogenesis in aggregate culture with WNT/β-catenin agonist (CITED1+ progenitors [1]) | tubulogenesis of P0 Cited1creERT2-EGFP progenitors (CITED1+ progenitors [2]; CHIR 3 μM, by day 4, GFP expression lost) | competence for tubulogenesis after subtraction of the factor [3] | progenitor growth and state in the absence of the factor [3] | expression of CITED1, PAX2, SIX2 and WT1 after subtraction of the component [4] | Cited1-driven GFP expression (CITED1+ progenitors [2]; LDN 75 nM added to CHIR 3 μM) | effect on CHIR-induced tubulogenesis (CITED1+ progenitors [2]; LDN 75 nM added to CHIR 3 μM) | expression of Cited1 and Six2 in cap mesenchyme (cap mesenchyme) | IC50 (ALK7) [nM] | reduction in SMAD1/5 phosphorylation compared to vehicle-treated controls (SMAD1/5 phosphorylation) |
| --- | --- | --- | --- | --- | --- | --- | --- | --- | --- | --- |
| O=C1Nc2cc(Br)ccc2/C1=C1/Nc2ccccc2/C1=N\O [BIO] | robust tubulogenesis |  |  |  |  |  |  |  |  |  |
| Cc1c[nH]c(-c2cnc(NCCNc3ccc(C#N)cn3)nc2-c2ccc(Cl)cc2Cl)n1 [CHIR99021] | robust tubulogenesis | underwent tubulogenesis | still competent to undergo tubulogenesis | failed to expand but remained CITED1+ | critical dependence |  |  |  |  |  |
| c1ccc2c(-c3cnn4cc(-c5ccc(N6CCNCC6)cc5)cnc34)ccnc2c1 [LDN-193189] |  |  | unable to undergo differentiation | expanded but were largely CITED1 negative | critical dependence | maintained GFP expression | blocked tubulogenesis | expression was maintained | > 500 | greater than 95% |
| C[C@@H](N)[C@H]1CC[C@H](C(=O)Nc2ccncc2)CC1 [Y-27632] |  |  | still competent to undergo tubulogenesis | significant decrease in cell attachment | critical dependence |  |  |  |  |  |
